Columns and labels:
[1] = system: spontaneously hypertensive rats; experiment: antihypertensive activity in spontaneously hypertensive rats (tail cuff systolic pressure); type: in vivo, rat
Description: The compounds of formula I were tested for antihypertensive activity by the following standard procedure:
The blood pressures of male or female spontaneously hypertensive rats are measured in a 37° C constant temperature housing by means of a tail cuff. Rats with systolic pressures below 155 mmHg are discarded. Groups of rats are dosed orally with the test substance in a suitable vehicle or with vehicle alone. Systolic pressures are recorded before dosing and at selected time points afterwards. Heart rates are derived from caudal artery pulses. Results are analysed statistically by means of 2 way analysis of variance (within group).

isolated rat portal vein = experiment: calcium antagonist activity: response of isolated rat portal vein to increasing calcium ion concentration in vitro; details: read-out: molar concentration required to reduce the response by 50%
Source text: In this-test a-molar concentration of 2×10^-7 M of 1,4-dihydro-2-(imidazol- 1-ylmethyl)-6-methyl 4-(3-nitrophenyl)pyridine-3, 5-dicarboxylic acid 3-ethyl 5-methyl ester was required to reduce the response by 50%.

[2] = system: blood platelet aggregation; experiment: inhibition of blood platelet aggregation (arachidonic acid induced, rabbit platelet rich plasma); type: cell-based, rabbit (New Zealand White); details: IC50 dazoxiben / IC50 test; 250 μM arachidonic acid, rabbit PRP
Description: Compounds of formula I were tested for their ability to inhibit blood platelet aggregation by a modification of the procedure of Fantl, Australian J.Exp.Biol- Med.Sci. 45, 355-62 1967.
Since platelet aggregation is the initial step in thrombus formation it -is considered that compounds which prevent aggregation or reduce platelet adhesiveness may inhibit the initiation of the atherosclerotic process. The effect of drugs on adhesiveness is measured in platelet-rich plasma containing a small amount of arachidonic acid which markedly increases aggregation in vitro and may be a physiological agent for doing so in vivo. The actual test procedure used in described below.
New Zealand White rabbits (2.5-3kg) are anaesthetised with an injection, via the marginal ear vein, of […]. The carotid artery is cannulated and blood (100-150 ml) is withdrawn into 50 ml syringes containing 3.8% sodium citrate (Ratio blood: citrate =9:1).
Blood is centrifuged at 200 g (1500 r.p.m.) for 10 minutes at 5° C. and the platelet rich plasma (PRP) removed. The platelets are then kept at room temperature in a screw topped plastic centrifuge tube for the duration of the experiment.
A twin channel platelet aggregometer--(HU aggregometer, A. Browne Ltd, Leicester, UK) is used. 1.0 ml aliquots of PRP are prewarmed for 5-10 minutes and stirred continuously at 1100 rpm. Aggregation is induced by addition of 250μM arachidonic acid, (8μl volume) to the PRP samples. The aggregometer output is set at maximum and the chart recorder sensitivity is altered to give a full scale deflection to this arachidonic acid response.
Control responses are recorded as the maximum deflection obtained after addition of 250μM arachidonic acid.
PRP samples are preincubated for 1 minute with the test compounds followed by arachidonic acid addition. The maximum deflection after the addition of arachidonic acid is then recorded. All drugs are screened initially at 10^-4 M (final concentration), i.e. 10μl of a 1×10^-2 M stock solution of the drug dissolved in distilled water is added to the PRP.
Dazoxiben, a thromboxane synthetase inhibitor (Randall, M. J. et al Research 23 145-162, 1981)is used as a positive control and all test components are compared with Dazoxiben. The activity of the test compound is expressed as the ratio IC50 Dazaxiben/IC50 Test where IC50 is the dose required to inhibit the A.A. induced aggregation by 50%.

thromboxane synthetase = experiment: inhibition of thromboxane production (TxB2 radio-immunoassay, rabbit platelet rich plasma); type: cell-based; details: Oryctolagus cuniculus, rabbit PRP, adenosine diphosphate and adrenalin, read-out: IC50 (50% inhibition of TxB2)
Description: The compounds of formula I were tested for their ability to inhibit thromboxane production by the following standard test:
a) Generation of thromboxanes
Blood (approx. 75 ml) is obtained from an anaesthetised rabbit and centrifuged at 200 g for 10 minutes to obtain platelet rich plasma (PRP). An aliquot of PRP is incubated for 10 minutes at 37° C. in the presence of vehicle or drug. Platelet aggregation is induced by the addition of adenosine diphosphate and adrenalin. The tubes are incubated for 3 minutes, centrifuged at 10,000 for 3 minutes and a […] aliquot of the supernatant taken for radio-immunoassay of thromboxane B2 (TxB2).
b) Radio-immunoassay of TxB2
The total incubation volume is 150μ containing 50μl of ^3 H - TxB2 (0.005 μCi), […] of sample or authentic TxB2 ranging from 5 to 300 pg per tube as standards and 50 μl of rabbit anti-sera to TxB2 (in a concentration which will bind 50% of H-TxB2) After incubation for 1 hour at room temperature the tubes are further incubated for 16-20 hours at 4° C. 1 ml of dextran-coated charcoal is then added to the tubes which are further incubated on ice for 10 minutes. Following the incubation the samples are centrifuged at 10,000 g for 10 minutes and […] of the supernatant added to 5 ml of scintillation cocktail. Measurement of the radioactivity in the supernatant quantifies the amount of [^3 H]-TxB2 bound by the antibody. The concentration of unlabelled TxB2 in the sample is then determined from a linear standard curve.
IC50 values represent the concentrations of drug which achieve 50% inhibition of TxB2.

human platelet PLA2 = experiment: Phospholipase A2 (PLA2) inhibition, hydrolysis of E.coli membrane phospholipids by human platelet PLA2; type: biochemical; details: 100 μM
Description: Of particular interest for this activity are compounds of formula I wherein Ar represents an aryl radical having a 2-nitro substituent. […] PLA2 activity was assayed by a procedure based on Franson, R.C., Chapter 12. Intracellular Metabolism of Ingested Phospholipids. Liposomes: from Physical Structure to Therapeutic Applications. North-Holland Biomedical Press, 1981, pp 349-380 and involving measuring the hydrolysis of E.coli membrane phospholipids and the release of free [1-^14 ]oleic acid from the C-2 position of phospholipids by human platelet PLA2.

Compound	BLOOD PRESSURE as % of pre-dose level ([1]; 0.003 mmol/kg po, 6 hrs) [%]	BLOOD PRESSURE as % of pre-dose level ([1]; 0.003 mmol/kg po, 24 hrs) [%]	BLOOD PRESSURE as % of pre-dose level ([1]; 0.003 mmol/kg po, t = 2 hrs) [%]	BLOOD PRESSURE as % of pre-dose level ([1]; 0.03 mmol/kg po, 6 hrs) [%]	BLOOD PRESSURE as % of pre-dose level ([1]; 0.03 mmol/kg po, 24 hrs) [%]	BLOOD PRESSURE as % of pre-dose level ([1]; 0.03 mmol/kg po, t = 2 hrs) [%]	BLOOD PRESSURE as % of pre-dose level ([1]; 0.15 mmol/kg po, 6 hrs) [%]	BLOOD PRESSURE as % of pre-dose level ([1]; 0.15 mmol/kg po, 24 hrs) [%]	BLOOD PRESSURE as % of pre-dose level ([1]; 0.15 mmol/kg po, t = 2 hrs) [%]	IC50 (isolated rat portal vein) [µM]	Inhibition of blood platelet aggregation potency ratio (dazoxiben = 1) [2]	IC50 (thromboxane synthetase) [µM]	inhibition of PLA2 activity (human platelet PLA2) [%]
CCOC(=O)C1=C(Cn2ccnc2)NC(C)=C(C(=O)OC)C1c1cccc([N+](=O)[O-])c1 (stereo not drawn) [Example 1, 1,4-Dihydro-2-(imidazol-1-ylmethyl)-6-methyl-4-(3-nitro-phenyl)pyridine-3,5-dicarboxylic acid 3-ethyl 5-methyl diester]	70	83	65	62	105	48	46	85	42	0.2	1.2	5	–
CCOC(=O)C1=C(C)NC(CCn2ccnc2)=C(C(=O)OCC)C1c1ccccc1[N+](=O)[O-] (stereo not drawn) [Example 2, 1,4-Dihydro-2-[2-(imidazol-1-yl)-ethyl]-6-methyl-4-(2-nitrophenyl)pyridine-3,5-dicarboxylic acid diethyl ester]	–	–	–	99	105	63	42	74	35	–	0.79	2.3	77
COC(=O)C1=C(C)NC(CCn2ccnc2)=C(C(=O)OC)C1c1ccccc1[N+](=O)[O-] (stereo not drawn) [Example 3, 1,4-Dihydro-2-[2-(1-imidazolyl)ethyl]-6-methyl-4-(2-nitrophenyl)pyridine-3,5-dicarboxylic acid dimethyl ester]	–	–	–	–	–	–	–	–	–	–	1.64	–	–
CCOC(=O)C1=C(COc2cccnc2)NC(C)=C(C(=O)OC)C1c1cccc([N+](=O)[O-])c1 (stereo not drawn) [Example 4, 1,4-Dihydro-2methyl-4-(3-nitrophenyl)-6-[(3-pyridyloxy)methyl]pyridine-3,5-dicarboxylic acid 5-ethyl-3-methyl diester]	–	–	–	–	–	–	–	–	–	–	1.1	–	–
COC(=O)C1=C(C)NC(CCn2cnc3ccccc32)=C(C(=O)OC)C1c1cccc(Cl)c1Cl (stereo not drawn) [Example 5, 2-[2-(1-Benzimidazolyl)ethyl]-4-[2,3-dichlorophenyl]-1,4-dihydro-6-methylpyridine-3,5-dicarboxylic acid dimethylester]	–	–	–	–	–	–	–	–	–	–	–	12.3	–
